Patent publication US20130060023A1, “Compounds useful for treating neurodegenerative disorders” (Satori Pharmaceuticals, Inc., priority 2011, published 2013)
Where two headings read alike, the source gives them in different places.

Columns and labels:
Assay type in all cases: cell-based
Conditions in all cases: Homo sapiens, 5 hours at 37° C., 1% DMSO
Aβ-42 = Aβ-42 level in conditioned media of 2B7 cells, MSD 3-PLEX ELISA
Experimental: (§1) Assays were conducted to determine the ability of a Compound of Formula I to modulate […], […], and Aβ-38. μELISA Plates: Human (6E10) Ab 3-PLEX ELISA kits were purchased from Meso Scale Discovery Labs, 9328 Gaither Road, Gaithersburg, Md. 20877 (Catalog Number […]-3). Plates with capture antibodies were blocked for 1-2 hours at room temperature with 150 μL of the manufactures blocking reagent. Conditioned Media: Cultured 2B7 cells in 96 well plate with 250 μL of media per well until confluent; Prepared serial dilutions of compounds in DMSO at 100× the final desired concentration; Washed wells with 2B7 cells 1× with 250 μL of media; Diluted DMSO stocks 1:100 into media: • Added 250 μL of media containing compounds (1% DMSO) to wells with 2B7 cells for 5 hours at 37° C. ELISA Sample Prep: Diluted conditioned media: 1 part media with 1% DMSO and 1 part blocking buffer; 150 μL of the 250 μL of conditioned media were used. Standard Curve Sample Prep: Prepared per manufacturer's protocol (see above). […] Final Wash and Readout: Washed wells 5× with MSD wash buffer; Added 150 μL 2×MSD read buffer; Read with MSD imager. […] Data Analysis: Aβ peptide levels for each peptide were calculated from the standard curve using the MSD software provided with the MSD 2400 Imager. Percent vehicle values for each compound dosage were then calculated and fit to a 4 parameter curve generating IC50 values.

Aβ-38 = Aβ-38 level in conditioned media of 2B7 cells, MSD 3-PLEX ELISA
Experimental: as §1

Aβ-40 = Aβ-40 level in conditioned media of 2B7 cells, MSD 3-PLEX ELISA
Experimental: as §1

SMILES: CC(C)[C@@H](OC(=O)N1CCC1)[C@H]1C[C@@H](C)[C@H]2[C@H](O1)[C@H](O)[C@@]1(C)[C@@H]3CC[C@H]4C(C)(C)[C@@H](O[C@H]5CN([C@@H]6CCNC6=O)CCO5)CC[C@@]45C[C@@]35CC[C@]21C [Compound I-1]
- IC50 (Aβ-42; inflection of 4 parameter curve, read-out: Aβ 42 DR IC50 Inflection): > 5000 nM
- IC50 (Aβ-42; read-out: Aβ 42 IC50): 100 to 500 nM
- IC50 (Aβ-38; inflection of 4 parameter curve, read-out: Aβ 38 DR IC50 Inflection): > 5000 nM
- IC50 (Aβ-38; read-out: Aβ 38 IC50): 501 to 1000 nM
- IC50 (Aβ-40; inflection of 4 parameter curve, read-out: Aβ 40 DR IC50 Inflection): > 5000 nM
- IC50 (Aβ-40; read-out: Aβ 40 IC50): > 5000 nM
